Source: ChEMBL document CHEMBL3526078, “Pharmacokinetics and hepatic uptake of eltrombopag, a novel platelet-increasing agent” (Drug Metab Dispos, 2011)

Legend:
[1] = biological target: T1, Solute carrier organic anion transporter family member 1B3 (Homo sapiens, UniProt Q9NPD5); test: Inhibition of OATP1B3-mediated [3H]estradiol 17beta-glucuronide uptake in human OATP1B3 expressing HEK293/PDZK1 cells by scintillation counting; assay type: ADME, cell-based; conditions: human, hek293/pdzk1
T1 sequence (Q9NPD5 whole entry): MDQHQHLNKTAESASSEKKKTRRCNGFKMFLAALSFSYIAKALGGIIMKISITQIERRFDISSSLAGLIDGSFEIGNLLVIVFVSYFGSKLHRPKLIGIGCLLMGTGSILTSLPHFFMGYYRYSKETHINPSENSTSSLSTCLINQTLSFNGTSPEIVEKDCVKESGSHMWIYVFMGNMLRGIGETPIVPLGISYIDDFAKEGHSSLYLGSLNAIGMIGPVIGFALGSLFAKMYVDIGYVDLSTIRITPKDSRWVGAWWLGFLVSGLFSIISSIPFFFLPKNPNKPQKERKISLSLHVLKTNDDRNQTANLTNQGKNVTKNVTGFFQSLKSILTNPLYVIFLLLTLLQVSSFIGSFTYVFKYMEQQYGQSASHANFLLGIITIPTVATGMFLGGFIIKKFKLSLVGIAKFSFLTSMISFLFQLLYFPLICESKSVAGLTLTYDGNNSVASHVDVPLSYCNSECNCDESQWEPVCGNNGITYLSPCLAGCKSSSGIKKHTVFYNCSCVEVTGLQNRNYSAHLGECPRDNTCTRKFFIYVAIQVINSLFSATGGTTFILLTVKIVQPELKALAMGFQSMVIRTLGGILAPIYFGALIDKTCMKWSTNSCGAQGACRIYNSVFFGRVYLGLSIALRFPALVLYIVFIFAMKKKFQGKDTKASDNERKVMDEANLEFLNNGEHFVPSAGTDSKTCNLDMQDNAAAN

[2] = biological target: T2, Solute carrier organic anion transporter family member 1B1 (Homo sapiens, UniProt Q9Y6L6); test: Inhibition of OATP1B1-mediated [3H]estrone-3-sulfate uptake in human OATP1B1 expressing HEK293/PDZK1 cells by scintillation counting; assay type: ADME, cell-based; conditions: human, hek293/pdzk1
T2 sequence (Q9Y6L6 whole entry): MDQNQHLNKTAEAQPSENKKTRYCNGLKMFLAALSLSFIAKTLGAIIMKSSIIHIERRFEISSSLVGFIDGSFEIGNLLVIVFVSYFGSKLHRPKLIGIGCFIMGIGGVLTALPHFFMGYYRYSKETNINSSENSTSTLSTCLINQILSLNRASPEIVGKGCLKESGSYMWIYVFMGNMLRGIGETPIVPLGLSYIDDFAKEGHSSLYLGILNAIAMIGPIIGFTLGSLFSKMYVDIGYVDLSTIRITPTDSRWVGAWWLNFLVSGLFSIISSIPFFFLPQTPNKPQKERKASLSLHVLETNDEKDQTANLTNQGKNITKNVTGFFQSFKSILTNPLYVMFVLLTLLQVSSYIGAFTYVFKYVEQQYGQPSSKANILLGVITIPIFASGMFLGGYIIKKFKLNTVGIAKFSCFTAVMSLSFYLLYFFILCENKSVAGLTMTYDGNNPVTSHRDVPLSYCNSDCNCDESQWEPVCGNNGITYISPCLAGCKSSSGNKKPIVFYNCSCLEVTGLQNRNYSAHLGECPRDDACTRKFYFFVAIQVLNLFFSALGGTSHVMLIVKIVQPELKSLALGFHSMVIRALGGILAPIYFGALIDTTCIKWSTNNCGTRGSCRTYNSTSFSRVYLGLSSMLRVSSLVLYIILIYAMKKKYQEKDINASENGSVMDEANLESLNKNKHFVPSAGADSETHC

[3] = biological target: T3, Solute carrier organic anion transporter family member 2B1 (Homo sapiens, UniProt O94956); test: Inhibition of OATP2B1-mediated [3H]estrone-3-sulfate uptake in human OATP2B1 expressing HEK293/PDZK1 cells by scintillation counting; assay type: ADME, cell-based; conditions: human, hek293/pdzk1
T3 sequence (O94956 whole entry): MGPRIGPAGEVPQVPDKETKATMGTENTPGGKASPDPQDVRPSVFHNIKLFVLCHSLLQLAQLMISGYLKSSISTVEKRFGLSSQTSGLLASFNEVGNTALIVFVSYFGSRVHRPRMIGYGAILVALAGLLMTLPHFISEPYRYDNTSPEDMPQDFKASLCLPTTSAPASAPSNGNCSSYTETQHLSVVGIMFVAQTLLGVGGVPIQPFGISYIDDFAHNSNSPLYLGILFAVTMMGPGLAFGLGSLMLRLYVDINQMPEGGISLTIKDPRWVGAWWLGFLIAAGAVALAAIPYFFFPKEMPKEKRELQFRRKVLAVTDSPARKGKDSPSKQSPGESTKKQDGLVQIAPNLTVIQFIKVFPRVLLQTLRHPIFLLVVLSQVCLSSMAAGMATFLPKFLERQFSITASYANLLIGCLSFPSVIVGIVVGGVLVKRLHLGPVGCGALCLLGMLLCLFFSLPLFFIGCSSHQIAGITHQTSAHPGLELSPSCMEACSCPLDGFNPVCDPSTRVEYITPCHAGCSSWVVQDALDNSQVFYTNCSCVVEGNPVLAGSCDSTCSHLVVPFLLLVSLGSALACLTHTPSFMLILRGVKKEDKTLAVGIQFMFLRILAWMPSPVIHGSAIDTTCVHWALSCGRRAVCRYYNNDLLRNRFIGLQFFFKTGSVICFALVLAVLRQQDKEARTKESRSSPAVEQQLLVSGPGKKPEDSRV

[4] = biological target: T4, Organic cation/carnitine transporter 2 (Homo sapiens, UniProt O76082); test: Inhibition of OCTN2-mediated [14C]carnitine uptake in human OCTN2 expressing HEK293/PDZK1 cells by scintillation counting; assay type: cell-based
T4 sequence (O76082 whole entry): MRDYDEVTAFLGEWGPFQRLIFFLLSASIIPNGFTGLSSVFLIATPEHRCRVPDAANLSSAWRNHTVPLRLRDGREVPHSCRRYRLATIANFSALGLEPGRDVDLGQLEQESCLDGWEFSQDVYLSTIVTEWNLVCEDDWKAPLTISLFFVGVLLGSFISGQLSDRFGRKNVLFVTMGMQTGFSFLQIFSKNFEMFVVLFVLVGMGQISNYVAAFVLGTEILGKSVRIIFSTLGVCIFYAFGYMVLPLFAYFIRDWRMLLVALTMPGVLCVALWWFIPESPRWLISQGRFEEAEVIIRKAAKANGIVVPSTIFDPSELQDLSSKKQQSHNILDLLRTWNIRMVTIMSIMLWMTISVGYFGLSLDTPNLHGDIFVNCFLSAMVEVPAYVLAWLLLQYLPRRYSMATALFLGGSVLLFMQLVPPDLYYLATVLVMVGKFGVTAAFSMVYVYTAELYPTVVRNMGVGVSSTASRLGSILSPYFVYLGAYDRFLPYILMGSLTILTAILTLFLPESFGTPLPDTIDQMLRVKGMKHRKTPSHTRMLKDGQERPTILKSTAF

| Structure (SMILES) | inhibition (INH) [1] | inhibition (INH) [2] | inhibition (INH) [3] | inhibition (INH) [4] |
| --- | --- | --- | --- | --- |
| O=C1OC(c2ccc(O)c(S(=O)(=O)O)c2)(c2ccc(O)c(S(=O)(=O)O)c2)c2c(Br)c(Br)c(Br)c(Br)c21 [SULFOBROMOPHTHALEIN] | Active | Active | Active | – |
| C[N+](C)(C)CC(O)CC(=O)[O-] (centres undefined) [CARNITINE] | – | – | – | Active |
